Results as given in publication PMC2963311 (Nature neuroscience, 2008).
Where no end group is shown, it is not given here.

test system: EGL-6; assay: GIRK current activation in EGL-6-expressing oocytes; assay type: cell-based, C. elegans; details: single synthetic peptide; X. laevis oocytes coexpressing EGL-6 and GIRKs; whole-cell currents, two-electrode voltage clamp, −80 mV, high-K+ medium (96 mM KCl); Fig. 4d

Substance	agonist activity when applied individually
KSAFVRF-NH2	could function as agonists when applied individually
KSQYIRF-NH2	could function as agonists when applied individually
QPKARSGYIRF-NH2	could function as agonists when applied individually
